Test results published in article PMC11062922 (Nature Chemical Biology, 2023).
Where two headings read alike, the source gives them in different places.

What was measured:
MAP3K1 = biological target: T1, MAP3K1 (Homo sapiens, UniProt Q13233); test: Kinobeads two-dose competition binding: MAP3K1; details: for CATDS: target MAP3K1
T1 construct: endogenous in cells
Source text: (§1) Briefly, Kinobeads comprise seven broad-spectrum small molecule kinase inhibitors immobilized on Sepharose beads. […]. Compounds of interest are set to compete for target protein binding with Kinobeads in the lysate and the amount of a given protein bound to Kinobeads in the presence of a compound can be quantified relative to a dimethylsulfoxide (DMSO) vehicle control by label-free mass spectrometry. This assay measures the physical interaction of a compound with thousands of endogenous proteins in parallel and, when systematically increasing the concentration of competitor, enables the calculation of an apparent interaction constant ( Kdapp ) for each compound and protein.
(§2) Kinobeads pulldown experiments were performed as described previously[13],[14],[17] with minor modification. […] The protein concentration was adjusted to 5 mg ml^−1. Kinase inhibitors were spiked into 0.5 ml of cell lysate at final concentrations of 100 and 1,000 nM (or DMSO, 0.3, 1, 3, 10, 30, 100, 300 and 1,000 nM for full dose experiments). […] Lysates were incubated for 45 min at 4 °C. Subsequently, lysates were incubated with Kinobeads ε (17.5 µl of settled beads) for 30 min at 4 °C. To assess the degree of protein depletion from the lysates by Kinobeads, the flow through of the DMSO control was recovered for a pulldown of pulldown experiment where the lysate was incubated a second time with fresh Kinobeads. Beads were washed in three steps with buffer containing 0.4%, 0.2% and no IGEPAL. Bound proteins were reduced with 50 mM DTT in 8 M Urea, 40 mM Tris-HCl pH 7.4 for 30 min at room temperature. After alkylation with 55 mM chloroacetamide, the urea concentration was reduced to 1–2 M and proteins were digested with trypsin. Acidified peptides were desalted and concentrated using SepPak tC18 µEluation plates (Waters). Samples were frozen, dried by vacuum centrifugation and stored at −20 °C.
(§3) Each kinase inhibitor was processed together with all DMSO controls of the same plate. Additionally, each search was supplemented with five high quality DMSO controls for consistent peptide identification and protein grouping. The resultant file (proteinGroups.txt) was used for subsequent filtering, normalization, data visualization and target annotation that was automatically performed by a data processing pipeline built in house that used R (including the ‘drc’ and ‘heatmap’ packages). First, reverse hits, potential contaminants and not quantified proteins in the DMSO control samples were discarded. Protein raw and label-free quantification intensities were normalized to the median DMSO control intensity to obtain relative residual binding intensities for each protein group at every inhibitor concentration and standard deviations of the DMSO control intensity were calculated. IC50 values were estimated based on the following equation IC50=I×100−inhibition/inhibition where [I] is the inhibitor concentration that was used for IC50 calculation and ‘inhibition’ the relative residual binding intensity. […]. Estimated Kdapp values were then calculated by multiplying the estimated IC50 values with a protein-dependent correction factor that was limited to a maximum value of one. The correction factor accounts for the depletion of a target protein from the lysate by Kinobeads. The depletion can be measured by the ratio of the amount of protein captured in two consecutive pulldowns of the same DMSO control lysate. In this study, correction factors were determined in separate experiments using the same lysate mixture and the same bead batch. Correction factors were set to the median of all correction factors. Targets of kinase inhibitors were annotated using the previously published random forest classifier. A training data set was annotated manually. […]

AURKB = biological target: T2, AURKB (Homo sapiens, UniProt Q96GD4); test: Kinobeads competition binding: AURKB; details: target AURKB
T2 construct: endogenous in cells
T2 sequence (Q96GD4 whole entry): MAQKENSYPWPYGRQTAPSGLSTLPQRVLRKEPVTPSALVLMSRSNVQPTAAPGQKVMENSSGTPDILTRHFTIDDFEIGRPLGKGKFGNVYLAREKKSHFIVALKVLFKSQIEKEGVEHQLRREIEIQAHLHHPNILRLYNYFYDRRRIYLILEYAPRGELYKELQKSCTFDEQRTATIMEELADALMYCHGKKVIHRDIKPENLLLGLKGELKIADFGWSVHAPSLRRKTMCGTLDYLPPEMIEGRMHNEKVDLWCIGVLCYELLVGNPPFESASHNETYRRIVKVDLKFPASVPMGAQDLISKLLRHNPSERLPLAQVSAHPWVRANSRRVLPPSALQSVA

EPHB6 = biological target: T3, EPHB6 (Homo sapiens, UniProt O15197); test: Kinobeads two-dose competition binding: EPHB6; details: target EPHB6
T3 construct: to maximize the representation of endogenous proteins; endogenous in cells
T3 sequence (O15197 32-1021): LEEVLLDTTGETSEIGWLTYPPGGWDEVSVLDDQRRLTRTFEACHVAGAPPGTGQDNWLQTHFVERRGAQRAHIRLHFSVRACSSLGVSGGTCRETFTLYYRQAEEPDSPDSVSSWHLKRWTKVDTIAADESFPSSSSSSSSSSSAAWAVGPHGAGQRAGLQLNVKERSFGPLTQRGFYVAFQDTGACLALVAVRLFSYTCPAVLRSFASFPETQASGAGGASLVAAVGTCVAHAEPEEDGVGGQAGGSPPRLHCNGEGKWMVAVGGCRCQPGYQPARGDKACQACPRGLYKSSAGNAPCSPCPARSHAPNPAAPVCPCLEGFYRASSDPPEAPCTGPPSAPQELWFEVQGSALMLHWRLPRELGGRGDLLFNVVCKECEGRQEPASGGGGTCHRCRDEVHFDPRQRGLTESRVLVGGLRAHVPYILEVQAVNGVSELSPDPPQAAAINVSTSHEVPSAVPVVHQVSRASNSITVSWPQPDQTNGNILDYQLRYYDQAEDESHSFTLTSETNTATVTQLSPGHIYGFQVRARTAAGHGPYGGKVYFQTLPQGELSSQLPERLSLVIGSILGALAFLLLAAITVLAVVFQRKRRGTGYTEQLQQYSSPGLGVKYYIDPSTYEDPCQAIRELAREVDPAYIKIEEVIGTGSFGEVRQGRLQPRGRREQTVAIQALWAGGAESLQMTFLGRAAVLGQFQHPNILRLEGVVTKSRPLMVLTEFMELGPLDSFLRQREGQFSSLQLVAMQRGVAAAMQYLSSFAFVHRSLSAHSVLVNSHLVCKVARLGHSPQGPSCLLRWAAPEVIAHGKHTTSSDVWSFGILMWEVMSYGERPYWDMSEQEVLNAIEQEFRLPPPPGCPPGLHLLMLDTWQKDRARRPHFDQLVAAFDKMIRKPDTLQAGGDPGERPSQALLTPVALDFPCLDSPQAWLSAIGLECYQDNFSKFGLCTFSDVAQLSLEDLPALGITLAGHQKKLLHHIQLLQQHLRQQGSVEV
Source text: as §1, §2, §3

GALK1 = test: Kinobeads competition binding: GALK1; design: species or system human; details: target GALK1
NEK9 = test: Kinobeads competition binding: NEK9; design: species or system human; details: target NEK9
CSNK2A1 (CK2) = biological target: T4, CSNK2A1 (CK2) (Homo sapiens, UniProt P68400); test: Kinobeads two-dose competition binding: CK2 (CSNK2A1)
T4 construct: endogenous in cells
T4 sequence (P68400 whole entry): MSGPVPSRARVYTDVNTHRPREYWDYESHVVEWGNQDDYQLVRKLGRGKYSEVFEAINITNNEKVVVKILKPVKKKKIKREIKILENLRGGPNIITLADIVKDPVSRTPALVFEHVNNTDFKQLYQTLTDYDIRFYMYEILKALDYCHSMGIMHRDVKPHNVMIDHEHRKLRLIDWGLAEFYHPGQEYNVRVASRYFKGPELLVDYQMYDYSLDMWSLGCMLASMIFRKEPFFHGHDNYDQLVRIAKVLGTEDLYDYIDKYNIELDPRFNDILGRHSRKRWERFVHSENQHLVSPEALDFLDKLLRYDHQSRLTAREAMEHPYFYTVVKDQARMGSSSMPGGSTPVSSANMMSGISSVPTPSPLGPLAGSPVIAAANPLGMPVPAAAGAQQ

FES = biological target: T5, FES (Homo sapiens, UniProt P07332); test: Kinobeads competition binding: FES; details: target FES;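 also: selectivity score: engagement of this protein divided by summed engagement of all targets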
T5 construct: endogenous in cells
T5 sequence (P07332 whole entry): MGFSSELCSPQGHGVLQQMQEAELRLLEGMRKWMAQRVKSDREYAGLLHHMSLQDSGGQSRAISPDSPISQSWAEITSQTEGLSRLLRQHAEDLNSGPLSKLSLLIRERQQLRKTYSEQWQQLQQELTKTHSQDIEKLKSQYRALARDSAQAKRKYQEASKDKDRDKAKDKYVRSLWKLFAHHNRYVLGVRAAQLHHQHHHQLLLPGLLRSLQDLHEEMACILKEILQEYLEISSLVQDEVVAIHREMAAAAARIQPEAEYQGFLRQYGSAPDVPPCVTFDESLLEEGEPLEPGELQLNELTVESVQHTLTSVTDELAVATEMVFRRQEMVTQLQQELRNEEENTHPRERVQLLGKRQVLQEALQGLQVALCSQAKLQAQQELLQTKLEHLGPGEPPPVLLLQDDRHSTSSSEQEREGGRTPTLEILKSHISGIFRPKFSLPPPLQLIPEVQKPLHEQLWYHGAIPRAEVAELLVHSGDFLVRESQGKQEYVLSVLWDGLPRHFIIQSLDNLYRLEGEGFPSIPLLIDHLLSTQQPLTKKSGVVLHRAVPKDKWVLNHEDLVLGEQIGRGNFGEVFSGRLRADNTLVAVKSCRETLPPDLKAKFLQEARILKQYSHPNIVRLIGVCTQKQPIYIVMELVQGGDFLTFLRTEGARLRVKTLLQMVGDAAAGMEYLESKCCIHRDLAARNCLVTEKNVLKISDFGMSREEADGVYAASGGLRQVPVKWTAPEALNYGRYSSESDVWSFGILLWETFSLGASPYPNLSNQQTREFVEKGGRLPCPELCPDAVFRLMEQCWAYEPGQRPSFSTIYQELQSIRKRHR
Source text: Supplement 41589_2023_1459_MOESM4_ESM.xlsx, sheet "CATDS matrix" | column: FES

MARK3 = test: Kinobeads competition binding: MARK3; design: species or system human; details: target MARK3
CDK16 = test: Kinobeads competition binding: CDK16; design: species or system human; details: target CDK16
ERCC2 = test: Kinobeads competition binding: ERCC2; design: species or system human; details: target ERCC2
CDK2 = biological target: T6, CDK2 (Homo sapiens, UniProt P24941); test: Kinobeads competition binding: CDK2; details: target CDK2
T6 construct: endogenous in cells

T1 sequence (Q13233 whole entry): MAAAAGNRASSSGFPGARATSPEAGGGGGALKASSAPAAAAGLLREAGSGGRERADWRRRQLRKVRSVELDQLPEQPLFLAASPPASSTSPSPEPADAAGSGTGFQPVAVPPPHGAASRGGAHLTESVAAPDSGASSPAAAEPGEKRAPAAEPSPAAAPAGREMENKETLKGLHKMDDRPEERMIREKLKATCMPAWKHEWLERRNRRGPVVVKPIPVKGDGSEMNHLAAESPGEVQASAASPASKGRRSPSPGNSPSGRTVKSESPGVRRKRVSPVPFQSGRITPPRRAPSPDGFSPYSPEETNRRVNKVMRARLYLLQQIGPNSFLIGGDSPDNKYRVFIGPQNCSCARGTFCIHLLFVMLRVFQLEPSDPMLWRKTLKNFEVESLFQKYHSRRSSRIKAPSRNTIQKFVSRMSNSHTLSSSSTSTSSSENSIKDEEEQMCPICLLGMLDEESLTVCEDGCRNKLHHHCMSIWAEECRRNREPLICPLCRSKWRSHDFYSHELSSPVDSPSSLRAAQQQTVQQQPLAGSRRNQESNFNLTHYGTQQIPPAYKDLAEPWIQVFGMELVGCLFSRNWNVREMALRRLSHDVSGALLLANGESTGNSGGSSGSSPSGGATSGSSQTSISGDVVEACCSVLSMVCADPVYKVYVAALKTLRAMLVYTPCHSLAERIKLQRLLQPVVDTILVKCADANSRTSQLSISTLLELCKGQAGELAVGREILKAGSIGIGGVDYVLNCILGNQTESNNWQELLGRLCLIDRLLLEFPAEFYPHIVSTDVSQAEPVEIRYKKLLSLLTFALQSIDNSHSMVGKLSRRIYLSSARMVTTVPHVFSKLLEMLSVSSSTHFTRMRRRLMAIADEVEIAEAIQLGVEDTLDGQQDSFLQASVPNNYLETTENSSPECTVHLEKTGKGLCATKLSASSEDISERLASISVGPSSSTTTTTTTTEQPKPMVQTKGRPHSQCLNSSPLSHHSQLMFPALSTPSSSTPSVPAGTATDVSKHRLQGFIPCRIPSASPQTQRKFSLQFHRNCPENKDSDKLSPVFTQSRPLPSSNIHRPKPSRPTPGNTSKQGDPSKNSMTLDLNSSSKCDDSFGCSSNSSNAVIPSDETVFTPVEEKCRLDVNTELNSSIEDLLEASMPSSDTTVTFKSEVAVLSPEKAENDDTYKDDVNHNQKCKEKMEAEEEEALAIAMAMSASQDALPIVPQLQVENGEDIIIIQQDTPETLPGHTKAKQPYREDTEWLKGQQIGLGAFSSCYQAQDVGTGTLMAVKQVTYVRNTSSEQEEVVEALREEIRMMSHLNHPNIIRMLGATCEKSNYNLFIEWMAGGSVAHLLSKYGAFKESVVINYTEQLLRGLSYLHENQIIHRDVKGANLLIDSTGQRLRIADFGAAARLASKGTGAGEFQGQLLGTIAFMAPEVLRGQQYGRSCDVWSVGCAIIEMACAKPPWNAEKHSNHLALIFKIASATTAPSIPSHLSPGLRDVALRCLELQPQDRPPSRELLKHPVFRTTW

| potency estimated from few doses (MAP3K1; Kinobeads two-dose, Drugmatrix - all 2, read-out: apparent Kd MAP3K1) | Compound | CATDS (AURKB) | CATDS (EPHB6) | CATDS (MAP3K1) | CATDS (GALK1) | CATDS (NEK9) | CATDS (CSNK2A1 (CK2); target CSNK2A1;CSNK2A3) | CATDS (FES) | CATDS (MARK3) | CATDS (CDK16) | CATDS (ERCC2) | CATDS (CDK2) | potency estimated from few doses (CSNK2A1 (CK2); read-out: Lestaurtinib Drugmatrix value, Gene Name CSNK2A1;CSNK2A3, target CSNK2A1;CSNK2A3, each column = one Lestaurtinib control replicate (batch_R1-R3)) | potency estimated from few doses (CSNK2A1 (CK2); Kinobeads two-dose screen (binding), read-out: Kdapp CK2 (CSNK2A1)) | CATDSCK2 (CSNK2A1 (CK2); selectivity score from Kinobeads two-dose data) |
| --- | --- | --- | --- | --- | --- | --- | --- | --- | --- | --- | --- | --- | --- | --- | --- |
| > 1000 nM | CC(C)N1CC(=O)N(C)c2cnc(Nc3cccc(S(=O)(=O)CCN4CCOCC4)c3)nc21 [BI00009348] | – | – | – | – | – | – | – | – | – | – | – | – | – | – |
| – | CCc1cc2c(cc1N1CCC(N3CCOCC3)CC1)C(C)(C)c1[nH]c3cc(C#N)ccc3c1C2=O [Alectinib] | 0 | 0 | 0 | 0 | 0 | 0 | 0 | 0 | 0 | 0 | 0 | – | – | – |
| – | CN(C)C/C=C/C(=O)Nc1cc2c(Nc3ccc(F)c(Cl)c3)ncnc2cc1O[C@H]1CCOC1 [Afatinib] | – | 0 | 0 | 0 | – | – | 0 | – | – | 0 | 0 | – | – | – |
| – | Nc1ncnc2[nH]c(-c3ccccc3)nc12 [AH5015_KCGS] | 0 | 0 | 0 | 0 | 0 | 0 | 0 | 0 | 0 | 0.1122 | 0 | – | – | – |
| – | CCN1CCN(Cc2ccc(Nc3ncc(F)c(-c4cc(F)c5nc(C)n(C(C)C)c5c4)n3)nc2)CC1 [Abemaciclib] | 0 | 0 | 0 | 0 | 0 | 0.05816 | 0 | 0 | 0.02651 | 0 | – | – | – | – |
| – | C[C@]12O[C@H](C[C@]1(O)CO)n1c3ccccc3c3c4c(c5c6ccccc6n2c5c31)CNC4=O [Lestaurtinib] | – | – | – | – | – | – | – | – | – | – | – | 291 nM | – | – |
| – | N#CC1(c2ccc(NC(=O)c3cccnc3NCc3ccncc3)cc2)CCCC1 [Apatinib] | 0 | 0 | 0 | 0 | 0 | 0 | 0 | 0 | 0 | 0 | 0 | – | – | – |
| – | COc1cc(Nc2ncc3c(C)nc(-c4cc5ccccc5[nH]4)n3n2)cc(OC)c1OC [GW869516X] | – | – | – | – | – | – | – | – | – | – | – | – | 78 nM | 1 |
